Data from US20250326771A1, “PIPERAZINE DERIVATIVES USEFUL IN HIV THERAPY” (VIIV HEALTHCARE COMPANY, priority 2022, published 2025).

What was measured:
cell-associated HIV RNA = conditions: primary cells / resting CD4+ T cells; cited from earlier work
p100/p52 = conditions: cited from earlier work
[1] = test system: Jurkat HIV-luciferase clones; conditions: HIV latency reversal studies; cited from earlier work
[2] = test system: Jurkat HIV-luciferase clones; assay: Jurkat latency reversal assay; format: cell-based; conditions: Homo sapiens, 48 h; Jurkat latency reversal assay potency; read-out: Jurkat pEC50 (converted)
In short: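 A 1:1:1 mix of three Jurkat clones (C16, 115, N6) carrying integrated luciferase-expressing HIV proviruses, 5,000 cells/well, was exposed to 3-fold, 14-point compound titrations from 10 μM at 0.5% DMSO for 48 h at 37° C. Steady-Glo luminescence was fitted by four-parameter logistic regression to give EC50 and maximal percent activation relative to vehicle.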

XIAP-BIR2 = XIAP-BIR2 (Homo sapiens (Human), UniProt P98170); assay: BIR binding assay (FRET competition), XIAP BIR2; conditions: FRET competition binding; read-out: XIAP BIR2 (pIC50) (converted)
In short: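 Compounds in a 15-point, 3-fold series competed with an AlexaFluor647 SMAC peptide (AVPIAQKSE, 200 nM) for 200 nM His-tagged XIAP-BIR2 over 60 min in pH 7.4 HEPES/CHAPS/DTT buffer. Eu-W1024 (2 nM) was then added for 30 min. IC50 and pIC50 were derived from the 615 nm/665 nm emission ratio by variable-slope fit.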

cIAP1-BIR2 = cIAP1-BIR2 (Homo sapiens (Human), UniProt Q13490); assay: BIR binding assay (FRET competition), cIAP1 BIR2
In short: (§1)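 Each domain is run separately at its own level: 50 nM cIAP1-BIR3, 100 nM XIAP-BIR3, 325 nM for cIAP1-BIR2 or cIAP2-BIR2. Probe is a 200 nM fluorescent SMAC peptide, and the value is IC50 from FRET competition.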

XIAP-BIR3 = XIAP-BIR3 (Homo sapiens (Human), UniProt P98170); assay: BIR binding assay (FRET competition), XIAP BIR3; conditions: for XIAP BIR3 vs BIR2 separation window: fold separation (FS) for XIAP
In short: as §1

cIAP1-BIR3 = cIAP1-BIR3 (Homo sapiens (Human), UniProt Q13490); assay: BIR binding assay (FRET competition), cIAP1 BIR3; conditions: for cIAP1 BIR3 vs BIR2 separation window: fold separation (FS) for cIAP1
In short: as §1

cIAP2-BIR2 = cIAP2-BIR2 (Homo sapiens (Human), UniProt Q13489); assay: BIR binding assay (FRET competition), cIAP2 BIR2
In short: as §1

cIAP2-BIR3 = cIAP2-BIR3 (Homo sapiens (Human), UniProt Q13489); assay: BIR binding assay (FRET competition), cIAP2 BIR3; conditions: for cIAP2 BIR3 vs BIR2 separation window: fold separation (FS) for cIAP2
cIAP2-BIR3, sequence (Q13489 238-349): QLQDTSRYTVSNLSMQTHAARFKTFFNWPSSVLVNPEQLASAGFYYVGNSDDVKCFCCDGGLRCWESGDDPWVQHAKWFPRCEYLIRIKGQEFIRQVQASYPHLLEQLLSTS

XIAP-BIR3, sequence (P98170 241-356): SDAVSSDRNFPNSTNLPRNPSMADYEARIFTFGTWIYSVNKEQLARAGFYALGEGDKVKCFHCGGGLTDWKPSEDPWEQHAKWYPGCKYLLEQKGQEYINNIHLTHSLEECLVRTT
cIAP1-BIR2, sequence (Q13490 173-257): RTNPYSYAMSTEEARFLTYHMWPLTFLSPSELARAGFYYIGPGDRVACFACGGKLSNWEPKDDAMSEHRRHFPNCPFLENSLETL
XIAP-BIR2, sequence (P98170 124-240): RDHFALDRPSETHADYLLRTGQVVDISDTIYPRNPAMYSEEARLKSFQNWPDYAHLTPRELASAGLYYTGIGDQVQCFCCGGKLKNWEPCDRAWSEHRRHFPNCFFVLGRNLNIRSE
cIAP2-BIR2, sequence (Q13489 158-242): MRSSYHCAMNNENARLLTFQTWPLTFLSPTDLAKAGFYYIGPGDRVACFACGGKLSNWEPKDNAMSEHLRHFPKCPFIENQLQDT
cIAP1-BIR3, sequence (Q13490 253-363): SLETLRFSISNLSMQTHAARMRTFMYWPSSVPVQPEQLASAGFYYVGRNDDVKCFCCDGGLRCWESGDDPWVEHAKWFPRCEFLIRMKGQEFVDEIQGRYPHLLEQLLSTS

Compound	HIV caRNA induction (cell-associated HIV RNA)	p100-p52 conversion (p100/p52)	potency in Jurkat [1]	EC50 [2] [nM]	IC50 (XIAP-BIR2) [µM]	IC50 (cIAP1-BIR2) [nM]	IC50 (XIAP-BIR3) [nM]	XIAP BIR3 vs BIR2 separation window (XIAP-BIR3)	IC50 (cIAP1-BIR3) [nM]	cIAP1 BIR3 vs BIR2 separation window (cIAP1-BIR3)	IC50 (cIAP2-BIR2) [nM]	IC50 (cIAP2-BIR3) [nM]	cIAP2 BIR3 vs BIR2 separation window (cIAP2-BIR3)
CN[C@@H](C)C(=O)N[C@H](C(=O)N1CCC[C@H]1C(=O)N[C@H]1c2ccccc2C[C@H]1OCC#CC#CCO[C@@H]1Cc2ccccc2[C@@H]1NC(=O)[C@@H]1CCCN1C(=O)[C@@H](NC(=O)[C@H](C)NC)C1CCCCC1)C1CCCCC1 [AZD5582]	increase in cell-associated HIV RNA expression	–	–	–	–	–	–	–	–	–	–	–	–
CC[C@H](NC(=O)[C@H](C)NC)C(=O)N1C[C@@H](O)C[C@H]1Cc1c(-c2[nH]c3cc(F)ccc3c2C[C@@H]2C[C@H](O)CN2C(=O)[C@H](CC)NC(=O)[C@H](C)NC)[nH]c2cc(F)ccc12 [Birinapant TL32711, Birinapant]	not potent	not potent	not potent	–	–	–	–	–	–	–	–	–	–
C[C@@H]1CN(CC(=O)N2CC(C)(C)c3[nH]c(=O)c(Cc4ccc(F)cc4)cc32)[C@@H](CN2CCO[C@H](C(=O)NC3CCN(C(=O)[C@@H]4CN(C[C@H]5CN[C@H](C)CN5CC(=O)N5CC(C)(C)c6[nH]c(=O)c(Cc7ccc(F)cc7)cc65)CCO4)CC3)C2)CN1 [Example 129, (S)-4-(((2R,5R)-1-(2-(6-(4-fluorobenzyl)-3,3-dimethyl-5-oxo-2,3,4,5-tetrahydro-1H-pyrrolo[3,2-b]pyridin-1-yl)-2-oxoethyl)-5-methylpiperazin-2-yl)methyl)-N-(1-((S)-4-(((2R,5R)-1-(2-(6-(4-fluorobenzyl)-3,3-dimethyl-5-oxo-2,3,4,5-tetrahydro-1H-pyrrolo[3,2-b]pyridin-1-yl)-2-oxoethyl)-5-methylpiperazin-2-yl)methyl)morpholine-2-carbonyl)piperidin-4-yl)morpholine-2-carboxamide]	–	–	–	0.49 to 12.6	10 to 51.3	22.4 to 1000	15.8 to 31.6	++++ (FS>10,000)	7.94 to 15.8	++ (1,000>FS>100)	1000 to 3160	7.94 to 15.8	+++ (10,000>FS>1,000)
C[C@@H]1CN(CC(=O)N2CC(C)(C)c3[nH]c(=O)c(Cc4ccc(F)cc4)cc32)[C@@H](CN2CCO[C@H](C(=O)N(C)CCCN(C)C(=O)[C@@H]3CN(C[C@H]4CN[C@H](C)CN4CC(=O)N4CC(C)(C)c5[nH]c(=O)c(Cc6ccc(F)cc6)cc54)CCO3)C2)CN1 [Example 130, (2S,2'S)-N,N′-(Propane-1,3-diyl)bis(4-(((2R,5R)-1-(2-(6-(4-fluorobenzyl)-3,3-dimethyl-5-oxo-2,3,4,5-tetrahydro-1H-pyrrolo[3,2-b]pyridin-1-yl)-2-oxoethyl)-5-methylpiperazin-2-yl)methyl)-N-methylmorpholine-2-carboxamide)]	–	–	–	12.6 to 63.1	10 to 51.3	1000 to 3160	7.94 to 15.8	++++ (FS>10,000)	1.38 to 7.94	+++ (10,000>FS>1,000)	1000 to 3160	1.38 to 7.94	+++ (10,000>FS>1,000)
C[C@@H]1CN(CC(=O)N2CC(C)(C)c3[nH]c(=O)c(Cc4ccc(F)cc4)cc32)[C@@H](CN2CCO[C@H](C(=O)N3CCCN(C(=O)[C@@H]4CN(C[C@H]5CN[C@H](C)CN5CC(=O)N5CC(C)(C)c6[nH]c(=O)c(Cc7ccc(F)cc7)cc65)CCO4)CC3)C2)CN1 [Example 131, 1,1′-(2,2′-((3R,3′R,6R,6′R)-(((2S,2'S)-(1,4-diazepane-1,4-dicarbonyl)bis(morpholine-2,4-diyl))bis(methylene))bis(3-methylpiperazine-6,1-diyl))bis(acetyl))bis(6-(4-fluorobenzyl)-3,3-dimethyl-1,2,3,4-tetrahydro-5H-pyrrolo[3,2-b]pyridin-5-one)]	–	–	–	12.6 to 63.1	10 to 51.3	1000 to 3160	15.8 to 31.6	++++ (FS>10,000)	31.6 to 501	++ (1,000>FS>100)	1000 to 3160	7.94 to 15.8	+++ (10,000>FS>1,000)
C[C@@H]1CN(CC(=O)N2CC(C)(C)c3[nH]c(=O)c(Cc4ccc(F)cc4)cc32)[C@@H](CN2CCO[C@H](C(=O)N(C)CC3CCN(C(=O)[C@@H]4CN(C[C@H]5CN[C@H](C)CN5CC(=O)N5CC(C)(C)c6[nH]c(=O)c(Cc7ccc(F)cc7)cc65)CCO4)CC3)C2)CN1 [Example 132, (S)-4-(((2R,5R)-1-(2-(6-(4-fluorobenzyl)-3,3-dimethyl-5-oxo-2,3,4,5-tetrahydro-1H-pyrrolo[3,2-b]pyridin-1-yl)-2-oxoethyl)-5-methylpiperazin-2-yl)methyl)-N-((1-((S)-4-(((2R,5R)-1-(2-(6-(4-fluorobenzyl)-3,3-dimethyl-5-oxo-2,3,4,5-tetrahydro-1H-pyrrolo[3,2-b]pyridin-1-yl)-2-oxoethyl)-5-methylpiperazin-2-yl)methyl)morpholine-2-carbonyl)piperidin-4-yl)methyl)-N-methylmorpholine-2-carboxamide]	–	–	–	12.6 to 63.1	10 to 51.3	3160 to 10000	15.8 to 31.6	++++ (FS>10,000)	7.94 to 15.8	+++ (10,000>FS>1,000)	1000 to 3160	7.94 to 15.8	+++ (10,000>FS>1,000)
